Like-named read-outs stand apart in the source and are kept apart here.
Tests used:
Plasma protein binding [1] = format: in vitro ADME; conditions: human
[2] = Repeated dose 14-day toxicokinetics (TK) study; format: in vivo, Sprague–Dawley rats; conditions: for Cmax / half-life / AUC(0-inf) / AUC(0-t) / Tmax: Sprague-Dawley, rat, po, 100 mg/kg
HepG2 = experiment: Cytotoxicity; format: cell-based
Dd2 = experiment: microbe, parasite or virus in culture; format: cell-based; conditions: Plasmodium falciparum
[3] = system: Plasmodium falciparum strain 3D7; experiment: In vitro killing profile; format: cell-based; conditions: 10 × IC50
Protocol: Briefly, the assay used limiting dilution technique to quantify the number of parasites viable after drug treatment. […] Parasites were treated for […]. The drugs used were renewed daily over the entire treatment period. Samples of parasites were taken from the treated culture every 24 h (0, for control of the initial number of parasites, 24, 48, 72, 96, 120 h’ time points). Following this, the procedure was carried out to wash out the drugs, and drug-free parasites were cultured in 96-well plates by adding fresh erythrocytes and new media (RPMI 1640 medium). Three-fold serial dilution was used with the abovementioned samples after removing the drug to quantify the number of viable parasites after treatment. Parasites were cultured in microtitre plates to allow all wells with viable parasites to render detectable parasitaemia. Four independent serial dilutions were carried out with each sample to correct experimental variations. Samples were examined after 21 days of culturing. Additional sampling was done after 28 days to confirm the growth/no growth.

Plasma protein binding [4] = format: in vitro ADME; conditions: rat, read-out: Plasma protein binding (% bound)
[5] = system: cytochrome P450 (CYP) isoforms (any of those tested); experiment: CYP inhibition, isoforms tested (summary); format: in vitro ADME; conditions: any of the CYP isoforms tested
in vitro [6] = format: in vitro ADME; conditions: dog, plasma
hERG = hERG (Homo sapiens, UniProt Q12809); experiment: hERG binding
hERG, sequence (Q12809 whole entry): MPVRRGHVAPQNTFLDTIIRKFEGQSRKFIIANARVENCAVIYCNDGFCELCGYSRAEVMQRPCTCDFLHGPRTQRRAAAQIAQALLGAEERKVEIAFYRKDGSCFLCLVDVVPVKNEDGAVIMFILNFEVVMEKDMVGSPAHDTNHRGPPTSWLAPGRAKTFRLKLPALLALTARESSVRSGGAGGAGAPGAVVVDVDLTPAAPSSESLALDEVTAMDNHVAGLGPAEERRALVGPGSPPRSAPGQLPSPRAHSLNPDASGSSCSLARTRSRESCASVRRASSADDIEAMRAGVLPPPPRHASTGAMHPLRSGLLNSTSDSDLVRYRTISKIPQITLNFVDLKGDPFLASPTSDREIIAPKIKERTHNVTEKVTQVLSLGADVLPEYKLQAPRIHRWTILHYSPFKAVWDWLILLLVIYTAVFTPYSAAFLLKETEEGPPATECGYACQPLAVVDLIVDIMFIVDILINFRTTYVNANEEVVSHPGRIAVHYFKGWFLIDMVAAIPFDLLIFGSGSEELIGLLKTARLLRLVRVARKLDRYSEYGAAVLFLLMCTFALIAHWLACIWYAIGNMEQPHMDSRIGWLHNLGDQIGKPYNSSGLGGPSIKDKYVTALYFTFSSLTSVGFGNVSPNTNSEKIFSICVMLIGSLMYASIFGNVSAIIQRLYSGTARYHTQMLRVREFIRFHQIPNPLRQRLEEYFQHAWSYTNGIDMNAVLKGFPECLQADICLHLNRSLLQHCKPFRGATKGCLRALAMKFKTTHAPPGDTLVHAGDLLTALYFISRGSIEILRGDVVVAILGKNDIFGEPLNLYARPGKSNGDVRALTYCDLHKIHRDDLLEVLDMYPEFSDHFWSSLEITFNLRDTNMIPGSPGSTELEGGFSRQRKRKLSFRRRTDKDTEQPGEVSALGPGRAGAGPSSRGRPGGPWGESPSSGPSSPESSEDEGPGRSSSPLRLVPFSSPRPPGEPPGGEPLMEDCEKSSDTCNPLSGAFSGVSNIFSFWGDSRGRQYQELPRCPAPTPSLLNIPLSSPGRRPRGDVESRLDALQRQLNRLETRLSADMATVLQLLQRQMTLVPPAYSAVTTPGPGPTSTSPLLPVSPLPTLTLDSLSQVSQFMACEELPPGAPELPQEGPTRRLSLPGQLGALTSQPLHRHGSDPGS

THP-1 = experiment: Cytotoxicity; format: cell-based
Cytotoxicity = format: cell-based; conditions: human, THP-1 cells
Plasma protein binding [7] = format: in vitro ADME; conditions: dog, read-out: Plasma protein binding (% bound)
PfHDAC1 = biological target: T1, PfHDAC1 (Plasmodium falciparum, UniProt Q7K6A1); experiment: PfHDAC1 fluorescent activity assay; format: biochemical
T1 construct: His-tag; FLAG-tag; purchased BPS Bioscience
T1 sequence (Q7K6A1 1-449): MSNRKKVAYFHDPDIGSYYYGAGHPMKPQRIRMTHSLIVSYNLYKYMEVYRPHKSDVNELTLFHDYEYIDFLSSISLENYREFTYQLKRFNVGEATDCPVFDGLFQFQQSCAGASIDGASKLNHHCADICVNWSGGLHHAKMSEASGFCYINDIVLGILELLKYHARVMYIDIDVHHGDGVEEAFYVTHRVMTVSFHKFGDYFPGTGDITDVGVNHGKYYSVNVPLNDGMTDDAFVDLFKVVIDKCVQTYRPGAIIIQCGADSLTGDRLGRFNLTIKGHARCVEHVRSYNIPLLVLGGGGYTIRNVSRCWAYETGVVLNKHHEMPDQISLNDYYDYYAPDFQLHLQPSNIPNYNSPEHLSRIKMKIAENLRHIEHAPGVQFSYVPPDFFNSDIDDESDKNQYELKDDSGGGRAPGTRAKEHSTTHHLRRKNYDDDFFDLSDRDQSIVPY

female gametocytes = experiment: Female gametocyte functional viability assay; format: cell-based; conditions: Plasmodium falciparum
human HDAC2 = human HDAC2 (Homo sapiens, UniProt Q92769); experiment: Isoform selectivity, recombinant HDAC isoforms; format: biochemical; conditions: single experiment assays
human HDAC2, sequence (Q92769 whole entry, canonical isoform): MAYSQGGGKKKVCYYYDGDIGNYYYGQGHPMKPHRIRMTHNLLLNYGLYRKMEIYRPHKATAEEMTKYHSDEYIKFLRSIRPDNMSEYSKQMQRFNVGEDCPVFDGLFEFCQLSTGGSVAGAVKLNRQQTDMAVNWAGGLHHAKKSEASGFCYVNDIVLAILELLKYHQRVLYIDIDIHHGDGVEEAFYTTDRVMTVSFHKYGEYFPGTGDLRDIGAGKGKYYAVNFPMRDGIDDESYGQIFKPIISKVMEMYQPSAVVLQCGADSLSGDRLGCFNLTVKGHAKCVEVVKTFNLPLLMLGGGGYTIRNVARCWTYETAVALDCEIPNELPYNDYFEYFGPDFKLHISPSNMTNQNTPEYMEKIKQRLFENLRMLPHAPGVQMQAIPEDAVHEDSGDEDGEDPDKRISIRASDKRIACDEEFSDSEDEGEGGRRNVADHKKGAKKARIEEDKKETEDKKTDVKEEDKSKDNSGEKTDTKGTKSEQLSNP
Protocol: Isoform selectivity was tested using recombinant HDAC isoforms (Biomol, USA).

in vitro [8] = format: in vitro ADME; conditions: mouse, plasma
Microsomal stability = format: in vitro ADME, mouse; conditions: MLM, Test Conc. 10 µM
in vitro [9] = format: in vitro ADME; conditions: rat, plasma
[10] = Single dose pharmacokinetics in SCID mice; format: in vivo; conditions: female, C.B-17/IcrHsd-Prkdc^scidLyst^bg (SCID), mouse, plasma; infected SCID mice, oral, 50 mg/Kg
Protocol: Female […] mice (n = 3) aged 7-8 weeks and weighing around 20 to 22 g were used for experimentation after a minimum 7 days of acclimation. Male BALB/c mice (n = 3) aged 8-10 weeks and weighing around 20 to 22 g were also used for experimentation after a minimum 7 days of acclimation. […] Feed was offered 2 h post-dose. Under mild isofluorane […], blood samples were collected by retro-orbital route into labelled centrifuge tubes containing K2EDTA anticoagulant at a concentration of 2 mg/mL of blood during the next 24 h post-dose. Collected blood samples were centrifuged at 4000 rpm for 10 min, and harvested plasma samples were stored at - 80 °C until analysis.

[11] = system: human HDAC (HeLa nuclear extract); experiment: HDAC activity screening, fluorescence-based, HeLa nuclear extract; format: biochemical
Protocol: HeLa nuclear extract was used as the enzyme source. […] The assay was performed in 96-well black microplates, and the total volume of the assay was set at 100 µl. […] The enzyme mixture was prepared by adding […] of the diluted enzyme (HeLa nuclear extract) to […] of HDAC buffer. From the enzyme mixture, 40 µl was taken and mixed with 10 µl of test compound (final concentration from 0.01 to 10 µM) or vehicle (control). The final mixture (50 µl) was added to each well which was then pre-incubated at 37 °C for 10 min. The HDAC reaction was started by adding 50 µl of HDAC substrate: […] The plate was incubated at 37 °C for 45 min. Trypsin stop solution (50 µl) was added to the well, and the plate was further incubated at 37 °C for 15 min to stop the reaction. The release of AMC was monitored by measuring the fluorescence at an excitation wavelength of 360 nm and an emission wavelength of 460 nm. Buffer and substrate alone served as blank.

[12] = both sexes, in vivo, rats, 100 mg/kg body weight
[13] = female, in vivo, female, day 1, 100 mg/kg bw
[14] = female, in vivo, female, day 14, 100 mg/kg bw
[15] = male, in vivo, male, day 1, 100 mg/kg bw
[16] = male, in vivo, male, day 14, 100 mg/kg bw

For `O=C(NO)c1ccc(Cn2cc(-c3ccc(CN4CCCC4)cc3)nn2)cc1` [FNDR-20123], which “Plasma protein binding (% bound)” value (Plasma protein binding [1]) is on record?
The value was 57.30%.

What about the fraction unbound (Plasma protein binding [1]; plasma, Human, read-out: Plasma protein binding (% bound) (converted)) of the same molecule?
The fraction unbound was 0.43.

And the “Accumulation (toxicokinetic profile)” value ([2]; 100 mg/kg bw oral gavage, 14 days)?
Its value is “no accumulation”.

What about the Cmax [2, 12] of the same molecule?
The Cmax was 1100 nM.

And the half-life [2, 12]?
Its half-life is 5.5 h.

And the half-life ([2]; female, blood, female, day 1, 100 mg/kg bw)?
The half-life was 3.21 ± 0.41 h.

And the AUC(0-inf) [2, 13]?
The AUC(0-inf) was 448 ± 113 ng·h/mL.

What about the AUC(0-t) [2, 13] of the same molecule?
The AUC(0-t) was 345 ± 71.6 ng·h/mL.

And the Cmax [2, 13]?
Its Cmax is 229 ± 69.3 ng/mL.

And the Tmax [2, 13]?
Its Tmax is 0.28 ± 0.21 h.

And the AUC(0-inf) [2, 14]?
The AUC(0-inf) was 573 ± 23.1 ng·h/mL.

And the AUC(0-t) [2, 14]?
The AUC(0-t) was 480 ± 49.7 ng·h/mL.

What about the Cmax [2, 14] of the same molecule?
The Cmax was 207 ± 36.1 ng/mL.

And the Tmax [2, 14]?
The Tmax was 0.14 ± 0.1 h.

What about the half-life ([2]; male, blood, male, day 1, 100 mg/kg bw) of the same molecule?
The half-life was 5.72 ± 4.1 h.

What about the half-life ([2]; male, blood, male, day 14, 100 mg/kg bw) of the same molecule?
The half-life was 2.3 ± 0.55 h.

And the AUC(0-inf) [2, 15]?
Its AUC(0-inf) is 1280 ± 282 ng·h/mL.

What about the AUC(0-t) [2, 15] of the same molecule?
The AUC(0-t) was 712 ± 234 ng·h/mL.

What about the Cmax [2, 15] of the same molecule?
The Cmax was 420 ± 174 ng/mL.

What about the Tmax [2, 15] of the same molecule?
Its Tmax is 0.33 ± 0.14 h.

And the AUC(0-inf) [2, 16]?
The AUC(0-inf) was 1080 ± 216 ng·h/mL.

What about the AUC(0-t) [2, 16] of the same molecule?
The AUC(0-t) was 957 ± 181 ng·h/mL.

And the Cmax [2, 16]?
The Cmax was 703 ± 362 ng/mL.

And the Tmax [2, 16]?
The Tmax was 0.19 ± 0.1 h.

And the “Cytotoxicity to HepG-2 cell line” value (HepG2)?
The value was “negligible cytotoxicity”.

What about the “Cytotoxicity HepG2 (% @ 100 µM)” value (HepG2; 100 µM) of the same molecule?
Its value is 12.6%.

What about the IC50 (Dd2) of the same molecule?
Its IC50 is 17.5 nM.

And the “In vitro killing profile compared with standard drugs” value [3]?
The value was “better than atovaquone and comparable to pyrimethamine”.

And the fraction unbound (Plasma protein binding [4])?
The fraction unbound was 0.581.

And the IC50 [5]?
Its IC50 is over 25000 nM.

And the remaining at 4 h (in vitro [6])?
The remaining at 4 h was 97.7%.

And the IC50 (hERG)?
Its IC50 is over 100000 nM.

And the “Cytotoxicity to THP-1 cell line” value (THP-1)?
The value was “negligible cytotoxicity”.

What about the IC50 (Cytotoxicity) of the same molecule?
The IC50 was 114000 nM.

What about the fraction unbound (Plasma protein binding [7]) of the same molecule?
Its fraction unbound is over 0.8.

And the IC50 (PfHDAC1)?
Its IC50 is 31 nM.

What about the IC50 (female gametocytes) of the same molecule?
The IC50 was over 5000 nM.

And the IC50 (human HDAC2)?
The IC50 was 29 nM.

And the remaining at 4 h (in vitro [8])?
Its remaining at 4 h is 89.2%.

What about the “Microsomal stability (% remaining at 120 min)” value (Microsomal stability) of the same molecule?
The value was 76.15%.

And the remaining at 2 h, 10 µM (Microsomal stability; mouse, liver microsomes, read-out: Microsomal stability (% remaining at 120 min))?
Its remaining at 2 h, 10 µM is over 75%.

What about the remaining at 4 h (in vitro [9]) of the same molecule?
Its remaining at 4 h is 88.9%.

What about the AUC(0-t) [10] of the same molecule?
The AUC(0-t) was 1340 ng·h/mL.

And the Cmax [10]?
Its Cmax is 460 ng/mL.

What about the Tmax [10] of the same molecule?
The Tmax was 1 h.

And the “Human HDAC % inhibition @1μM” value ([11]; 1μM)?
Its value is 95%.

What about the IC50 ([11]; HeLa nuclear extract, read-out: Human HDAC IC50) of the same molecule?
Its IC50 is 3 nM.

And the IC50 ([11]; single experiment assays, read-out: IC50 HeLa nuclear extract)?
Its IC50 is 3 nM.

Reference: article PMC7549214 (Malaria Journal, 2020)
